In patent US20260042754A1, “Substituted Bicyclic Heteroaryl Sulfonamide Derivatives for the Treatment of Cancer” (NODUS ONCOLOGY LIMITED, priority 2022, published 2026):

Legend:
[1] = molecular target: Recombinant His-tagged human PARG protein (Homo sapiens (Human), UniProt Q86W56); test: PARG enzymatic assay (TFMU-ADPr fluorescence); assay type: biochemical; details: 1 nM enzyme, 200 μM TFMU-ADPr, read after 30 minutes
Procedure: Inhibition of PARG enzymatic activity by compounds was determined as follows: Recombinant His-tagged human PARG protein expressed in Sf21 insect cells (Adipogen AG, #40T-0022) was aliquoted and stored at −80° C. until use. The artificial enzyme substrate 4-(trifluoromethyl)umbelliferone (TFMU)-ADPr was prepared essentially as described (Drown B S et al, Cell Chemical Biology 2018) and stored at −20° C. as 10 mM stock solutions in DMSO (dimethyl sulfoxide) until use. For reactions, typical final concentration of the enzyme was 1 nM and of the TFMU-ADPr 200 μM. Reactions were carried out in black 384-well low volume round bottom assay plates (Corning, #4514) in a final volume of 10 μL. To this end, PARG was diluted to 1.67 nM in reaction buffer (50 mM K2HPO4, 50 mM KCl, 10 mM β-mercaptoethanol, pH 7.4) and 6 μL were dispensed per assay well using a multichannel pipette. Then compound was dispensed into each well using an Echo dispenser (BeckmanCoulter) to yield the pre-specified final concentration of the range of concentrations to be tested (typically 8-point serial concentrations ranging from either from 0.01 to 10 μM, or from 0.001 to 1 μM, or from 0.0001 to 0.1 μM), and being volume-corrected with 100% DMSO (0.5% final DMSO concentration in reaction mixtures). Plates were mixed, and after 15 minutes 4 μL TFMU-ADPr was added into each well using a multichannel pipette followed by brief mixing. Fluorescence intensity signals were then measured after 30 minutes on an EnVision microplate reader (PerkinElmer) using 380/10 nm and 535/25 nm filters for the excitation and emission, respectively (gain: 150). The assay window was set using DMSO control (top) and a control containing no PARG enzyme (bottom). Delta values were plotted as concentration-response curves fitted to a sigmoidal 4-parameter logistic model to calculate IC50 values (Scigilian Analyze).

[2] = molecular target: human PARG (PARG-NanoLuc fusion in HEK293T cells) (Homo sapiens (Human), UniProt Q86W56); test: PARG NanoBRET-based cellular target engagement assay; assay type: cell-based; details: HEK293T cells transfected with PARG-NanoLuc, NanoBRET probe 0.89 μM, 2 hours; read-out: PARG TE IC50
Procedure: PARG Nano-luciferase construct: The PARG-NanoLuc® fusion vector was generated by Promega, by inserting the full length human PARG cDNA sequence encoding the 976 amino acid protein (Gene ID: 8505, UniProt: Q86W56) into the pNLF1-C [CMV/Hygro] vector (C-terminal fusions with NanoLuc® enzyme).
PARG target engagement tracer synthesis: The NanoBRET tracer for PARG was prepared following a previously reported general tracer synthesis procedure.
PARG Probe Displacement Assay Using NanoBRET: HEK293T (DSMZ #ACC 635) cells transiently transfected with the PARG-NanoLuc fusion construct were resuspended in phenol red-free OptiMEM (Gibco #11058-021) to a concentration of 2.4×10^5 cells/mL. 9 μL per well were then added to a white 384-well low volume microplate (Greiner #784080) and incubated for 24 hours under standard growth conditions.
Then compound was dispensed into each well using an Echo dispenser (BeckmanCoulter) to yield the pre-specified final concentration of the range of concentrations to be tested (typically 8-point serial concentrations ranging from either from 0.01 to 10 μM, or from 0.001 to 1 μM, or from 0.0001 to 0.1 μM), and being volume-corrected with 100% DMSO (0.5% final DMSO concentration in reaction mixtures).
After mixing and an incubation at room temperature for 15 min 1 μl of the NanoBRET probe (at 0.89 μM final concentration) was added to the microplate using a multichannel pipette. The plate was mixed and incubated in a 5% CO2 environment at 37° C. for 2 hours, and then 5 μL per well of a solution consisting of a 1:31.25 dilution of Nano-Glo substrate (Promega) and a 1:500 dilution of NanoLuc extracellular inhibitor (Promega) in phenol red-free OptiMEM was added to each well followed by another mixing step. Filtered luminescence was measured on an EnVision plate reader (PerkinElmer) equipped with a 460 nm filter (donor) and a 645 nm filter (acceptor). BRET ratios were plotted as concentration-response curves fitted to a sigmoidal 4-parameter logistic model to calculate IC50 values (Scigilian Analyze).

[3] = system: NCI-H1650; test: Modified cell proliferation assay (CellTiter-Glo), NCI-H1650; assay type: cell-based; details: Homo sapiens, NCI-H1650; modified protocol, 384-well, 300 cells per well, 120 h; highest concentration tested 30000 nM; read-out: NCI-H1650 GI50 (high PARG dependency)
Procedure: The cell proliferation assay protocol was modified and used for RMUG-S for Examples 12-44, and subsequently used to test Examples 1-44 in the NCI-H1650 cell line.
NCI-H1650 (ATCC, #CRL-5883) or RMUG-S were seeded on day 1 at 300 cells per well in a 384-well plate (Greiner, #781080) that assure assay linearity and optimal signal intensity in 25 μL of RPMI1640 media (Pan Biotech, #P04-22100) containing 10% FCS (Capricorn, #FBS-11A; Lot. CP22-5141) and 1% Glutamine (Pan Biotech, #P04-80100). After incubation for 24 h in humidified chambers at 37° C./5% CO2, compounds/DMSO were dispensed at different concentrations using an Echo 520 (Beckman Coulter). Cells were further incubated for 120 h at 37° C. and 5% CO2. Cells treated with the compound vehicle DMSO were used as negative controls and cells treated with 10 μM Staurosporine (LC Laboratories, #S-9300) served as positive controls.
At day 6 the CellTiter Glo Reagent was prepared according to the instructions of the kit (Promega Inc.): Reagent was mixed 1:1 with cell culture medium. Thereon, mixture and assay plates were equilibrated at room temperature for 20 min. Equal volumes of the reagent-medium-mixture were added to the volume of culture medium present in each well. The plates were mixed at […] for 2 minutes on an orbital shaker (Timix5, Edmund Buehler GmbH). The microplates were then incubated at room temperature for 10 minutes for stabilization of the luminescent signal. Following incubation, the luminescence was recorded on a Victor X5 microplate reader (Perkin Elmer) using a 200 ms integration time. The data was then analyzed with Excel using the XLFIT Plugin (dose response Fit 205) for determination of the concentration necessary for half-maximal inhibition (i.e. the inflection point of the fitted curve).
As quality control the Z′-factor was calculated from 16 positive and negative control values. Only assay results showing a Z′-factor≥0.5 were used for further analysis.

human PARG (PARG-NanoLuc fusion in HEK293T cells), sequence (Q86W56 whole entry, the tested form may be a part): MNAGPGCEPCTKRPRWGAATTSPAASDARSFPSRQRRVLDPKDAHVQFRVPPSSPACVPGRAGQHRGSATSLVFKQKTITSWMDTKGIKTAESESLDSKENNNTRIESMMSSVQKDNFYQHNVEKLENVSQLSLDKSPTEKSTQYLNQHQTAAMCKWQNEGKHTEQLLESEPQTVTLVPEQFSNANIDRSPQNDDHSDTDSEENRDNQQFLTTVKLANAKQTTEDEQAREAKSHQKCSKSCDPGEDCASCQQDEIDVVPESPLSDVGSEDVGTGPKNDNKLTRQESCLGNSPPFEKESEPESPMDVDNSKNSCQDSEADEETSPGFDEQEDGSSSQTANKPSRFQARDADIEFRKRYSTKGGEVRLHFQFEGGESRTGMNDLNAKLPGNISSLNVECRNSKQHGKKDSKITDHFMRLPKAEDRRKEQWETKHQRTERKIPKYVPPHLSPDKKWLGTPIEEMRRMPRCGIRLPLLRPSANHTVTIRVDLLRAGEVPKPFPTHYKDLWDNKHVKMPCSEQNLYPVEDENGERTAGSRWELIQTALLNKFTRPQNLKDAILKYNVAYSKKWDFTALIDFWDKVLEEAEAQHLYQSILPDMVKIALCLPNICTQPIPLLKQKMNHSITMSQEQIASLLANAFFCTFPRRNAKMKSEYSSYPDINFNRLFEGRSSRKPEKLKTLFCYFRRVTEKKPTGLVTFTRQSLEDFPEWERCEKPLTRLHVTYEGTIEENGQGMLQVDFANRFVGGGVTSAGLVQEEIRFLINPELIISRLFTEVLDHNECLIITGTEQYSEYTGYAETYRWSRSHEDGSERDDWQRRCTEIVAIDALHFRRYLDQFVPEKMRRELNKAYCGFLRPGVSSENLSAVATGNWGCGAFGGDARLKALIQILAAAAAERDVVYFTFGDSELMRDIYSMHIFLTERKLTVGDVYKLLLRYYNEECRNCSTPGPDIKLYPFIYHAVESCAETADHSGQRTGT
Recombinant His-tagged human PARG protein, sequence (Q86W56 whole entry): as the sequence (Q86W56 whole entry, the tested form may be a part) above

IC50 [1]	IC50 [2]	GI50 [3]	Structure (SMILES)
< 30 nM	30 to 99 nM	> 2000 nM	CO/N=c1\[nH]c2c(-c3ccc(C(N)=O)cc3)cc(S(=O)(=O)NC3(C)CC3)cc2c(=O)n1Cc1cnn(C)c1 [Example 15, (E)-4-(2-(methoxyimino)-3-((1-methyl-1H-pyrazol-4-yl)methyl)-6-(N-(1-methylcyclopropyl)sulfamoyl)-4-oxo-1,2,3,4-tetrahydroquinazolin-8-yl)benzamide]
< 30 nM	< 30 nM	> 2000 nM	CO/N=c1\[nH]c2c(-c3ccc(C(C)=O)cc3)cc(S(=O)(=O)NC3(C)CC3)cc2c(=O)n1Cc1cnn(C)c1 [Example 16, (E)-8-(4-acetylphenyl)-2-(methoxyimino)-3-((1-methyl-1H-pyrazol-4-yl)methyl)-N-(1-methylcyclopropyl)-4-oxo-1,2,3,4-tetrahydroquinazoline-6-sulfonamide]
30 to 99 nM	100 to 1000 nM	> 2000 nM	CO/N=c1\[nH]c2c(-c3ccc(CN)cc3)cc(S(=O)(=O)NC3(C)CC3)cc2c(=O)n1Cc1cnn(C)c1 [Example 17, (E)-8-(4-(aminomethyl)phenyl)-2-(methoxyimino)-3-((1-methyl-1H-pyrazol-4-yl)methyl)-N-(1-methylcyclopropyl)-4-oxo-1,2,3,4-tetrahydroquinazoline-6-sulfonamide]
< 30 nM	< 30 nM	500 to 2000 nM	CO/N=c1\[nH]c2c(-c3ccc(C(=O)C4(C)CC4)cc3)cc(S(=O)(=O)NC3(C)CC3)cc2c(=O)n1Cc1cnn(C)c1 [Example 18, (E)-2-(methoxyimino)-3-((1-methyl-1H-pyrazol-4-yl)methyl)-8-(4-(1-methylcyclopropane-1-carbonyl)phenyl)-N-(1-methylcyclopropyl)-4-oxo-1,2,3,4-tetrahydroquinazoline-6-sulfonamide]
< 30 nM	< 30 nM	500 to 2000 nM	CO/N=c1\[nH]c2c(-c3ccc(C(=O)N(C)C)nc3)cc(S(=O)(=O)NC3(C)CC3)cc2c(=O)n1Cc1cnn(C)c1 [Example 19, (E)-5-(2-(methoxyimino)-3-((1-methyl-1H-pyrazol-4-yl)methyl)-6-(N-(1-methylcyclopropyl)sulfamoyl)-4-oxo-1,2,3,4-tetrahydroquinazolin-8-yl)-N,N-dimethylpicolinamide]
< 30 nM	< 30 nM	500 to 2000 nM	CO/N=c1\[nH]c2c(-c3ccc(C(=O)N(C)C)cn3)cc(S(=O)(=O)NC3(C)CC3)cc2c(=O)n1Cc1cnn(C)c1 [Example 20, (E)-6-(2-(methoxyimino)-3-((1-methyl-1H-pyrazol-4-yl)methyl)-6-(N-(1-methylcyclopropyl)sulfamoyl)-4-oxo-1,2,3,4-tetrahydroquinazolin-8-yl)-N,N-dimethylnicotinamide]
< 30 nM	< 30 nM	500 to 2000 nM	CO/N=c1\[nH]c2c(-c3cnc(C(=O)N(C)C)[nH]3)cc(S(=O)(=O)NC3(C)CC3)cc2c(=O)n1Cc1cnn(C)c1 [Example 23, (E)-5-(2-(methoxyimino)-3-((1-methyl-1H-pyrazol-4-yl)methyl)-6-(N-(1-methylcyclopropyl)sulfamoyl)-4-oxo-1,2,3,4-tetrahydroquinazolin-8-yl)-N,N-dimethyl-1H-imidazole-2-carboxamide]
< 30 nM	< 30 nM	< 500 nM	CO/N=c1\[nH]c2c(N3CCN(C(=O)CC(F)(F)F)[C@H](C)C3)cc(S(=O)(=O)NC3(C)CC3)cc2c(=O)n1Cc1cnn(C)c1 [Example 31, (R,E)-2-(methoxyimino)-3-((1-methyl-1H-pyrazol-4-yl)methyl)-8-(3-methyl-4-(3,3,3-trifluoropropanoyl)piperazin-1-yl)-N-(1-methylcyclopropyl)-4-oxo-1,2,3,4-tetrahydroquinazoline-6-sulfonamide]
< 30 nM	< 30 nM	< 500 nM	CO/N=c1\[nH]c2c(N3CCN(C(=O)C4(C#N)CC4)[C@H](C)C3)cc(S(=O)(=O)NC3(C)CC3)cc2c(=O)n1Cc1cnn(C)c1 [Example 33, (R,E)-8-(4-(1-cyanocyclopropane-1-carbonyl)-3-methylpiperazin-1-yl)-2-(methoxyimino)-3-((1-methyl-1H-pyrazol-4-yl)methyl)-N-(1-methylcyclopropyl)-4-oxo-1,2,3,4-tetrahydroquinazoline-6-sulfonamide]
< 30 nM	< 30 nM	< 500 nM	CO/N=c1\[nH]c2c(N3CCN(C(=O)C4(N(C)C)CC4)[C@H](C)C3)cc(S(=O)(=O)NC3(C)CC3)cc2c(=O)n1Cc1cnn(C)c1 [Example 34, (R,E)-8-(4-(1-(dimethylamino)cyclopropane-1-carbonyl)-3-methylpiperazin-1-yl)-2-(methoxyimino)-3-((1-methyl-1H-pyrazol-4-yl)methyl)-N-(1-methylcyclopropyl)-4-oxo-1,2,3,4-tetrahydroquinazoline-6-sulfonamide]
< 30 nM	< 30 nM	< 500 nM	CO/N=c1\[nH]c2c(N3CCN(C(=O)C(C)C)[C@H](C)C3)cc(S(=O)(=O)NC3(C)CC3)cc2c(=O)n1Cc1cnn(C)c1 [Example 35, (R,E)-8-(4-isobutyryl-3-methylpiperazin-1-yl)-2-(methoxyimino)-3-((1-methyl-1H-pyrazol-4-yl)methyl)-N-(1-methylcyclopropyl)-4-oxo-1,2,3,4-tetrahydroquinazoline-6-sulfonamide]
